Patent US20240002342A1, “HERBICIDAL DERIVATIVES” (SYNGENTA CROP PROTECTION AG, priority 2020, published 2024)

How the values were obtained:
Assay type in all cases: in vivo
Setaria faberi (SETFA) [1] = assay: Pre-emergence herbicidal test; details: 1000 g/ha unless otherwise stated
[2] = test system: Ipomoea hederacea (IPOHE); assay: Pre-emergence herbicidal test; details: 1000 g/ha unless otherwise stated
Lolium perenne (LOLPE) [3] = assay: Post-emergence herbicidal test; details: 1000 g/ha unless otherwise stated, evaluated after 13 days
Description: (§1) Seeds of a variety of test species are sown in standard soil in pots (Amaranthus retoflexus (AMARE), Solanum nigrum (SOLNI), Setaria faberi (SETFA), Lolium perenne (LOLPE), Echinochloa crus-galli (ECHCG), Ipomoea hederacea (IPOHE)). After 8 days cultivation under controlled conditions in a glasshouse (at 24° C./16° C., day/night; 14 hours light; 65% humidity), the plants are sprayed with an aqueous spray solution derived from the formulation of the technical active ingredient in acetone/water (50:50) solution containing 0.5% Tween 20 (polyoxyethelyene sorbitan monolaurate, CAS RN 9005-64-5). Compounds are applied at 1000 g/ha unless otherwise stated. The test plants are then grown in a glasshouse under controlled conditions in a glasshouse (at 24° C./16° C., day/night; 14 hours light; 65% humidity) and watered twice daily. After 13 days the test is evaluated for the percentage damage caused to the plant. The biological activities are shown in the following table on a five-point scale (5=81-100%; 4=61-80%; 3=41-60%; 2=21-40%; 1=0-20%).

Solanum nigrum (SOLNI) [4] = assay: Post-emergence herbicidal test; details: 1000 g/ha unless otherwise stated, evaluated after 13 days
Description: as §1

[5] = test system: Amaranthus retoflexus (AMARE); assay: Post-emergence herbicidal test; details: 1000 g/ha unless otherwise stated, evaluated after 13 days
Description: as §1

[6] = test system: Ipomoea hederacea (IPOHE); assay: Post-emergence herbicidal test; details: 1000 g/ha unless otherwise stated, evaluated after 13 days
Description: as §1

[7] = test system: Echinochloa crus-galli (ECHCG); assay: Post-emergence herbicidal test; details: 1000 g/ha unless otherwise stated, evaluated after 13 days
Description: as §1

Setaria faberi (SETFA) [8] = assay: Post-emergence herbicidal test; details: 1000 g/ha unless otherwise stated, evaluated after 13 days
Description: as §1

Solanum nigrum (SOLNI) [9] = assay: Pre-emergence herbicidal test; details: 1000 g/ha unless otherwise stated
[10] = test system: Amaranthus retoflexus (AMARE); assay: Pre-emergence herbicidal test; details: 1000 g/ha unless otherwise stated
Lolium perenne (LOLPE) [11] = assay: Pre-emergence herbicidal test; details: 1000 g/ha unless otherwise stated
[12] = test system: Echinochloa crus-galli (ECHCG); assay: Pre-emergence herbicidal test; details: 1000 g/ha unless otherwise stated

SMILES	percentage damage caused to the plant, SETFA (five-point scale) (Setaria faberi (SETFA) [1])	percentage damage caused to the plant, IPOHE (five-point scale) [2]	percentage damage caused to the plant, LOLPE (five-point scale) (Lolium perenne (LOLPE) [3])	percentage damage caused to the plant, SOLNI (five-point scale) (Solanum nigrum (SOLNI) [4])	percentage damage caused to the plant, AMARE (five-point scale) [5]	percentage damage caused to the plant, IPOHE (five-point scale) [6]	percentage damage caused to the plant, ECHCG (five-point scale) [7]	percentage damage caused to the plant, SETFA (five-point scale) (Setaria faberi (SETFA) [8])	percentage damage caused to the plant, SOLNI (five-point scale) (Solanum nigrum (SOLNI) [9])	percentage damage caused to the plant, AMARE (five-point scale) [10]	percentage damage caused to the plant, LOLPE (five-point scale) (Lolium perenne (LOLPE) [11])	percentage damage caused to the plant, ECHCG (five-point scale) [12]
CCn1c(C)c(C(C)=O)c(=O)c(C(=O)O)c1-c1ccc(Cl)c(Cl)c1 [Compound 2.008, 5-acetyl-2-(3,4-dichlorophenyl)-1-ethyl-6-methyl-4-oxo-pyridine-3-carboxylic acid]	5 (5=81-100%)	3 (3=41-60%)	5 (5=81-100%)	2 (2=21-40%)	2 (2=21-40%)	2 (2=21-40%)	3 (3=41-60%)	3 (3=41-60%)	3 (3=41-60%)	1 (1=0-20%)	4 (4=61-80%)	3 (3=41-60%)
C#Cc1c(C)n(CC)c(-c2ccc(Cl)c(Cl)c2)c(C(=O)O)c1=O [Compound 2.005, 2-(3,4-dichlorophenyl)-1-ethyl-5-ethynyl-6-methyl-4-oxo-pyridine-3-carboxylic acid]	4 (4=61-80%)	4 (4=61-80%)	5 (5=81-100%)	4 (4=61-80%)	5 (5=81-100%)	4 (4=61-80%)	3 (3=41-60%)	5 (5=81-100%)	4 (4=61-80%)	1 (1=0-20%)	1 (1=0-20%)	1 (1=0-20%)
C=Cc1c(C)n(CC)c(-c2ccc(Cl)c(Cl)c2)c(C(=O)OC)c1=O [Compound 4.001, methyl 2-(3,4-dichlorophenyl)-1-ethyl-6-methyl-4-oxo-5-vinyl-pyridine-3-carboxylate]	1 (1=0-20%)	1 (1=0-20%)	4 (4=61-80%)	1 (1=0-20%)	1 (1=0-20%)	2 (2=21-40%)	1 (1=0-20%)	4 (4=61-80%)	1 (1=0-20%)	1 (1=0-20%)	1 (1=0-20%)	1 (1=0-20%)
CCn1c(C)c(C(=O)O)c(=O)c(C(=O)O)c1-c1ccc(Cl)c(Cl)c1 [Compound 2.010, 2-(3,4-dichlorophenyl)-1-ethyl-6-methyl-4-oxo-pyridine-3,5-dicarboxylic acid]	1 (1=0-20%)	1 (1=0-20%)	1 (1=0-20%)	2 (2=21-40%)	2 (2=21-40%)	2 (2=21-40%)	1 (1=0-20%)	1 (1=0-20%)	3 (3=41-60%)	1 (1=0-20%)	2 (2=21-40%)	1 (1=0-20%)
C=Cc1c(C)n(CC)c(-c2ccc(Cl)c(Cl)c2)c(C(=O)O)c1=O [Compound 2.001, 2-(3,4-dichlorophenyl)-1-ethyl-6-methyl-4-oxo-5-vinyl-pyridine-3-carboxylic acid]	4 (4=61-80%)	3 (3=41-60%)	4 (4=61-80%)	1 (1=0-20%)	1 (1=0-20%)	4 (4=61-80%)	2 (2=21-40%)	4 (4=61-80%)	1 (1=0-20%)	1 (1=0-20%)	4 (4=61-80%)	3 (3=41-60%)
